Data on one substance can be found in patent US7897559B2, “Dermatological composition and kit containing avermectin compound for treating dermatological conditions” (priority 2000, dated 2011).

Series [1] can be described thus: Safety and tolerability observed in the informal trials of topical ivermectin. In kind it is in vivo, human. Conditions: informal clinical trial, topical application, any body locations. The text has this: It is known that some of the diseases, such as perioral dermatitis, the skin on the eyelids can be affected. To treat eyelids, a high concentration of the medicine should be avoided to prevent irritation of the eyes.
(§1) Examples 4 to 12 illustrate clinical effectiveness of the method of the present invention.

Series [2] relates to transient acantholytic dermatitis, acne miliaris necrotica, acne varioliformis, perioral dermatitis, acneiform eruptions, acne vulgaris, seborrheic dermatitis. In words: Informal clinical trial of topical ivermectin across the dermatological conditions. The class given is in vivo, human.
Description: In a preferred embodiment, ivermectin is used because it is readily available commercially. The concentration of ivermectin in the dermatological composition for the purpose of the present invention can be in a broad range from about 0.05% to 8% weight by volume (w/v).
The treatment method using ivermectin dermatological composition for each of these dermatological conditions is similar. Preferably, in an initial treatment of these dermatological conditions the ivermectin dermatological composition can be applied topically from one to several times daily for a period of from about one week to several weeks, to substantially control the condition and clear the lesions. The initial dosage, including frequency of the topical application, ivermectin concentration of the dermatological composition, and the length of the initial treatment period can be determined depending on a specific disease, severity of the disease, and the response of the patient to the medication. For example, acne miliaris necrotica is more difficult to treat, and it frequently requires an initial treatment of three weeks or longer. While perioral dermatitis patients can respond to ivermectin treatment rapidly, and healing of lesions can occur in less than two weeks. After the initial treatment, a maintenance dosage, that has less frequent application, and/or a dermatological composition with less concentration of ivermectin, can be used for maintaining the condition.
as §1

Series [3] has as its system head lice. Conditions: after a single topical application; cited from earlier work.
The conditions of series [4]: oral dosage of a moderate ivermectin concentration; cited from earlier work.
[5] abbreviates: informal clinical trial, topical application to affected skin.

Turning to ivermectin, the side effects result in series [1] was “no side effects observed in any body locations”. Besides, in series [2] (setting [5]), the “dermal infection of the affected area” value is on record as “controls dermal infection of the affected area”; the “inflammation of the affected area” value is “controls inflammation of the affected area”; the “itching and skin irritation caused by the conditions” value is “removes itching and skin irritation”; the lesions entry was “clears up lesions”. Further, the clinical effectiveness entry in series [2] (lotion or cream, ivermectin concentration as low as 0.075%) is recorded as “clinically effective”. Also, in series [3], the “curative effect on head lice” value is “absolute curative effect”. For the same substance, in series [4], the safety in human entry is “safe in human, without serious adverse side effects”.
